Laboratory results: US20100256104A1, “NOVEL AMIDE COMPOUNDS” (ASTRAZENECA R&D, priority 2009, published 2010)

Target: T1, recombinant human GR (Homo sapiens, UniProt P04150)
T1 construct: purchased Panvera/Invitrogen P2812 (kit P2893)
T1 sequence (P04150 1-777): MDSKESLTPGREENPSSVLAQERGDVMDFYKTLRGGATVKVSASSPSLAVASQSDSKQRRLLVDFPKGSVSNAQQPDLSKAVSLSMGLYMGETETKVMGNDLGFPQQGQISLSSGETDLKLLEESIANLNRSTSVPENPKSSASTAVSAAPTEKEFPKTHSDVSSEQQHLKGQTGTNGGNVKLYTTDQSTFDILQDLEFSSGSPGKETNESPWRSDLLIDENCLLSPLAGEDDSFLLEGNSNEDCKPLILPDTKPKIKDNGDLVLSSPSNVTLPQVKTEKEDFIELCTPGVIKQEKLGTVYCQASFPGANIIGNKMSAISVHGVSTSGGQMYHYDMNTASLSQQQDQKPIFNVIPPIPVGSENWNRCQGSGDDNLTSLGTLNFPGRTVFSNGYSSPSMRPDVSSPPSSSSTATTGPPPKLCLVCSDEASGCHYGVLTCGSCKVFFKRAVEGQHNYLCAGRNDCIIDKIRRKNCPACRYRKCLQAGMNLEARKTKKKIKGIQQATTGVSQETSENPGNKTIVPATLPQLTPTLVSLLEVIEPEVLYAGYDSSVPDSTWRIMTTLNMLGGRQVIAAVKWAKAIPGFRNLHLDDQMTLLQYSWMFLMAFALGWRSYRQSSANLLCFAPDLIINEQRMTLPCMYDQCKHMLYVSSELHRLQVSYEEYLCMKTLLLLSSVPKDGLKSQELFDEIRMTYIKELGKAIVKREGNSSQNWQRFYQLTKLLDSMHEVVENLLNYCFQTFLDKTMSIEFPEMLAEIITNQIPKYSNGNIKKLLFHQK
Test: Human Glucocorticoid Receptor (GR) Assay, fluorescence polarization competition with GS Red tracer
Details: 2 hours at room temperature, 100% control 10 μM Dexamethasone, XLfit model 205, read-out: Inhibition of GR binding, IC50
Protocol: Human Glucocorticoid Receptor (GR) Assay The assay is based on a commercial kit from Panvera/Invitrogen (Part number P2893). The assay technology is fluorescence polarization. The kit utilises recombinant human GR (Panvera, Part number P2812), a Fluoromone™ labelled tracer (GS Red, Panvera, Part number P2894) and a Stabilizing Peptide 10X (Panvera, Part number P2815). The GR and Stabilizing Peptide reagents are stored at −70° C. while the GS Red is stored at −20° C. Also included in the kit are 1M DTT (Panvera, Part number P2325, stored at −20° C.) and GR Screening buffer 10X (Panvera, Part number P2814, stored at −70° C. initially but once thawed stored at room temperature). Avoid repeated freeze/thaws for all reagents. The GR Screening buffer 10X comprises 100 mM potassium phosphate, 200 mM sodium molybdate, 1 mM EDTA and 20% DMSO. Test compounds (1 μL) and controls (1 μL) in 100% DMSO were added to black polystyrene 384-well plates (Greiner low volume black flat-bottom, part number 784076). 0% control was 100% DMSO and 100% control was 10 μM Dexamethasone. Background solution (8 μL; assay buffer 10X, Stabilizing Peptide, DTT and ice cold MQ water) was added to the background wells. GS Red solution (7 μL; assay buffer 10X, Stabilizing Peptide, DTT, GS Red and ice cold water) was added to all wells except background wells. GR solution (7 μL; assay buffer 10X, Stabilizing Peptide, DTT, GR and ice cold water) was added to all wells. The plate was sealed and incubated in a dark at room temperature for 2 hours. The plate was read in an Analyst plate reader (LJL Biosystems/Molecular Devices Corporation) or other similar plate reader capable of recording fluorescence polarization (excitation wavelength 530 nm, emission wavelength 590 nm and a dichroic mirror at 561 nm).

SMILES	IC50 [nM]
C[C@H]1C[C@@H]2[C@H]([C@@H](O)C[C@@]3(C)[C@H]2CC[C@]3(OC(=O)C2CC2)C(=O)SCF)[C@@]2(C)Cc3cnn(-c4cccc(C(=O)NCC(N)=O)c4)c3C=C12 [Example 31, (1R,3aS,3bS,5S, 10aR,10bS,11S,12aS)-7-{3-[(2-amino-2-oxoethyl)carbamoyl]phenyl}-1-{(fluoromethyl)sulfanyl] carbonyl}-11-hydroxy-5,10a,12a-trimethyl-1,2,3,3a,3b,4,5,7,10, 10a,10b,11,12,12a-tetradecahydrocyclo-penta[5,6]naphtho [1,2-f]indazol-1-yl cyclopropanecarboxylate]	1.2
COCC(=O)O[C@]1(C(=O)SCC#N)CC[C@H]2[C@@H]3CCC4=Cc5c(cnn5-c5cccc(C(=O)NCc6cccnc6)c5)C[C@]4(C)[C@H]3[C@@H](O)C[C@@]21C [Example 52, (1R,3aS,3bS,10aR, 10bS,11S,12aS)-1-{[(cyanomethyl)sulfanyl]carbonyl}-11-hydroxy-10a,12a-dimethyl-7-{3-[(pyridin-3-ylmethyl)carbamoyl]phenyl}-1,2,3,3a,3b,4,5,7,10, 10a,10b,11,12,12a-tetradecahydrocyclo-penta[5,6]naphtho [1,2-f]indazol-1-yl methoxyacetate]	1.5
CCC(=O)O[C@]1(C(=O)SCF)[C@H](C)C[C@H]2[C@@H]3CCC4=Cc5c(cnn5-c5cccc(C(=O)NCc6cccnc6)c5)C[C@]4(C)[C@@]3(F)[C@@H](O)C[C@@]21C [Example 43, (1R,2R,3aS,3bS, 10aS,10bR,11S,12aS)-10b-fluoro-1-{[(fluoromethyl)sulfanyl]carbonyl}-11-hydroxy-2,10a,12a-trimethyl-7-{3-[(pyridin-3-ylmethyl)carbamoyl]phenyl}-1,2,3,3a,3b,4,5,7,10, 10a,10b,11,12,12a-tetradecahydrocyclo-penta[5,6]naphtho [1,2-f]indazol-1-yl propanoate]	1.9
COCC(=O)O[C@]1(C(=O)SCF)[C@H](C)C[C@H]2[C@@H]3CCC4=Cc5c(cnn5-c5cccc(C(=O)NCC(N)=O)c5)C[C@]4(C)[C@@]3(F)[C@@H](O)C[C@@]21C [Example 45, (1R,2R,3aS,3bS, 10aS,10bR,11S,12aS)-7-{3-[(2-amino-2-oxoethyl)carbamoyl]phenyl}-10b-fluoro-1-{[(fluoromethyl)sulfanyl]carbonyl}-11-hydroxy-2,10a,12a-trimethyl-1,2,3,3a,3b,4,5,7,10, 10a,10b,11,12,12a-tetradecahydrocyclo-penta[5,6]naphtho [1,2-f]indazol-1-yl methoxyacetate]	5.3
CCC(=O)O[C@]1(C(=O)SCC#N)CC[C@H]2[C@@H]3CCC4=Cc5c(cnn5-c5cccc(C(=O)NC6CCS(=O)(=O)C6)c5)C[C@]4(C)[C@H]3[C@@H](O)C[C@@]21C (stereo partly drawn) [Example 12, (1R,3aS,3bS,10aR,10bS,11S,12aS)-1-{[(Cyanomethyl)sulfanyl]carbonyl}-7-{3-[(1,1-dioxidotetrahydrothiophen-3-yl)carbamoyl]phenyl}-11-hydroxy-10a,12a-dimethyl-1,2,3,3a,3b,4,5,7,10,10a,10b,11,12,12a-tetradecahydrocyclopenta[5,6]naphtho[1,2-f]indazol-1-yl propanoate]	4.3
CCC(=O)O[C@]1(C(=O)SCF)CC[C@H]2[C@@H]3CCC4=Cc5c(cnn5-c5cccc(C(=O)NCC(N)=O)c5)C[C@]4(C)[C@@]3(F)[C@@H](O)C[C@@]21C [Example 44, (1R,3aS,3bS,10aS, 10bR,11S,12aS)-7-{3-[(2-amino-2-oxoethyl)carbamoyl]phenyl}-10b-fluoro-1-{[(fluoromethyl)sulfanyl]carbonyl}-11-hydroxy-10a,12a-dimethyl-1,2,3,3a,3b,4,5,7,10, 10a,10b,11,12,12a-tetradecahydrocyclo-penta[5,6]naphtho [1,2-f]indazol-1-yl propanoate]	2.2
CCC(=O)O[C@]1(C(=O)SCF)CC[C@H]2[C@@H]3CCC4=Cc5c(cnn5-c5cccc(C(=O)NCC(N)=O)c5)C[C@]4(C)[C@H]3[C@@H](O)C[C@@]21C [Example 18, (1R,3aS,3bS,10aR,10bS,11S, 12aS)-7-{3-[(2-amino-2-oxoethyl)carbamoyl]phenyl}-1-{[(fluoromethyl)sulfanyl]carbonyl}-11-hydroxy-10a, 12a-dimethyl-1,2,3,3a,3b,4,5,7,10,10a,10b,11,12,12a-tetradecahydrocyclopenta[5,6] naphtho[1,2-f]indazol-1-yl propanoate]	1.4
CCC(=O)O[C@]1(C(=O)SCF)[C@H](C)C[C@H]2[C@@H]3CCC4=Cc5c(cnn5-c5cccc(C(=O)N[C@@H](C)C(N)=O)c5)C[C@]4(C)[C@@]3(F)[C@@H](O)C[C@@]21C [Example 25, (1R,2R,3aS,3bS, 10aS,10bR,11S,12aS)-7-(3-{[(1S)-2-amino-1-methyl-2-oxoethyl]carbamoyl}phenyl)-10b-fluoro-1-{[(fluoromethyl)-sulfanyl]carbonyl}-11-hydroxy-2,10a,12a-trimethyl-1,2,3,3a,3b,4,5,7,10, 10a,10b,11,12,12a-tetradecahydrocyclo-penta[5,6]naphtho [1,2-f]indazol-1-yl propanoate]	2.8
CCC(=O)O[C@]1(C(=O)SCF)[C@H](C)C[C@H]2[C@@H]3CCC4=Cc5c(cnn5-c5cccc(C(=O)NCC(N)=O)c5)C[C@]4(C)[C@@]3(F)[C@@H](O)C[C@@]21C [Example 41, (1R,2R,3aS,3bS, 10aS,10bR,11S,12aS)-7-{3-[(2-amino-2-oxoethyl)carbamoyl]phenyl}-10b-fluoro-1-{[(fluoromethyl)sulfanyl]carbonyl}-11-hydroxy-2,10a,12a-trimethyl-1,2,3,3a,3b,4,5,7,10, 10a,10b,11,12,12a-tetradecahydrocyclo-penta[5,6]naphtho [1,2-f]indazol-1-yl propanoate]	1.2
COCCNC(=O)c1cccc(-n2ncc3c2C=C2CC[C@@H]4[C@H]([C@@H](O)C[C@@]5(C)[C@H]4CC[C@]5(OC(=O)C4CC4)C(=O)SCF)[C@@]2(C)C3)c1 [Example 5, (1R,3aS,3bS,10aR,10bS,11S,12aS)-1-{[(Fluoromethyl)sulfanyl]carbonyl}-11-hydroxy-7-{3-[(2-methoxyethyl)carbamoyl]phenyl}-10a,12a-dimethyl-1,2,3,3a,3b,4,5,7,10,10a,10b,11,12,12a-tetradecahydrocyclopenta[5,6]naphtho[1,2-f]indazol-1-yl cyclopropanecarboxylate]	0.98
CCC(=O)O[C@]1(C(=O)SCF)CC[C@H]2[C@@H]3CCC4=Cc5c(cnn5-c5cccc(C(=O)NCCOC)c5)C[C@]4(C)[C@H]3[C@@H](O)C[C@@]21C [Example 2, (1R,3aS,3bS,10aR,10bS,11S,12aS)-1-{[(Fluoromethyl)sulfanyl]carbonyl}-11-hydroxy-7-{3-[(2-methoxyethyl)carbamoyl]phenyl}-10a,12a-dimethyl-1,2,3,3a,3b,4,5,7,10,10a,10b,11,12,12a-tetradecahydrocyclopenta[5,6]naphtho[1,2-f]indazol-1-yl propanoate]	0.81
COCC(=O)O[C@]1(C(=O)SCF)[C@H](C)C[C@H]2[C@@H]3CCC4=Cc5c(cnn5-c5cccc(C(=O)N[C@H](C)C(N)=O)c5)C[C@]4(C)[C@@]3(F)[C@@H](O)C[C@@]21C [Example 29, (1R,2R,3aS,3bS, 10aS,10bR,11S,12aS)-7-(3-{[(1R)-2-amino-1-methyl-2-oxoethyl]carbamoyl}phenyl)-10b-fluoro-1-{[(fluoromethyl)-sulfanyl]carbonyl}-11-hydroxy-2,10a,12a-trimethyl-1,2,3,3a,3b,4,5,7,10, 10a,10b,11,12,12a-tetradecahydrocyclo-penta[5,6]naphtho [1,2-f]indazol-1-yl methoxyacetate]	2.6
